# Data reported in patent US20110039721A1, “METHOD FOR PREDICTION ABOUT CARCINOGENICITY OF SUBSTANCE IN RODENT” (Chemicals Evaluation and Research Institute, priority 2007, published 2011).
# Assays:
# [1] = system: mRNA expressed from the genes (A) to (D) in rat liver; test: Behavior of genes (mRNA expression level, oligo-DNA microarray) in rat liver after 28-day oral administration; format: in vivo
# Summary of the method: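 Rat liver RNA after 28 days of daily gavage dosing (male F344, 5 weeks old, four per group). A change reaching 1.5-fold, or 1/1.5, against solvent control scores as significant; opposite direction versus another carcinogen scores as not significant.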
# liver = conditions: classification of the substance (Cr+/Cr−); cited from earlier work
# rodent = conditions: classification of the substance (C+/C−); cited from earlier work
# [2] = classification of the substance (M+/M−); cited from earlier work
# [3] = gene group (A), Unigene No. Rn.167075
# [4] = gene group (C), Unigene No. Rn.120914
structure (smiles),measurement,setting,value
"Clc1ccc(C(c2ccc(Cl)cc2)C(Cl)(Cl)Cl)cc1 [TS016, Dichloro-diphenyl-trichloroethane]","Behavior of gene caused by administration of chemical substance, Gene No. 4846","[1]; gene group (A), Unigene No. Rn.144554",−
same,"Behavior of gene caused by administration of chemical substance, Gene No. 2026",[1]; [3],−
same,"Behavior of gene caused by administration of chemical substance, Gene No. 4218",[1]; [3],−
same,"Behavior of gene caused by administration of chemical substance, Gene No. 6182","[1]; gene group (A), Unigene No. Rn.5834",+
same,"Behavior of gene caused by administration of chemical substance, Gene No. 5600","[1]; gene group (A), Unigene No. Rn.9836",−
same,"Behavior of gene caused by administration of chemical substance, Gene No. 1494","[1]; gene group (B), Unigene No. Rn.1430",+
same,"Behavior of gene caused by administration of chemical substance, Gene No. 2045","[1]; gene group (B), Unigene No. Rn.19329",+
same,"Behavior of gene caused by administration of chemical substance, Gene No. 2203","[1]; gene group (B), Unigene No. Rn.21240",+
same,"Behavior of gene caused by administration of chemical substance, Gene No. 533","[1]; gene group (C), Unigene No. Rn.106184",+
same,"Behavior of gene caused by administration of chemical substance, Gene No. 725","[1]; gene group (C), Unigene No. Rn.108075",−
same,"Behavior of gene caused by administration of chemical substance, Gene No. 1163","[1]; gene group (C), Unigene No. Rn.11766",−
same,"Behavior of gene caused by administration of chemical substance, Gene No. 4973","[1]; gene group (C), Unigene No. Rn.118529",−
same,"Behavior of gene caused by administration of chemical substance, Gene No. 4095","[1]; gene group (C), Unigene No. Rn.119024",+
same,"Behavior of gene caused by administration of chemical substance, Gene No. 1334",[1]; [4],−
same,"Behavior of gene caused by administration of chemical substance, Gene No. 6620",[1]; [4],−
same,"Behavior of gene caused by administration of chemical substance, Gene No. 6303","[1]; gene group (C), Unigene No. Rn.123063",−
same,"Behavior of gene caused by administration of chemical substance, Gene No. 5878","[1]; gene group (C), Unigene No. Rn.143213",−
same,"Behavior of gene caused by administration of chemical substance, Gene No. 1131","[1]; gene group (C), Unigene No. Rn.144946",−
same,"Behavior of gene caused by administration of chemical substance, Gene No. 1562","[1]; gene group (C), Unigene No. Rn.14744",−
same,"Behavior of gene caused by administration of chemical substance, Gene No. 1741","[1]; gene group (C), Unigene No. Rn.1647",+
same,"Behavior of gene caused by administration of chemical substance, Gene No. 893","[1]; gene group (C), Unigene No. Rn.164817",−
same,"Behavior of gene caused by administration of chemical substance, Gene No. 6026","[1]; gene group (C), Unigene No. Rn.167685",−
same,"Behavior of gene caused by administration of chemical substance, Gene No. 154","[1]; gene group (C), Unigene No. Rn.185941",−
same,"Behavior of gene caused by administration of chemical substance, Gene No. 1993","[1]; gene group (C), Unigene No. Rn.18728",−
same,"Behavior of gene caused by administration of chemical substance, Gene No. 813","[1]; gene group (C), Unigene No. Rn.201760",−
same,"Behavior of gene caused by administration of chemical substance, Gene No. 2494","[1]; gene group (C), Unigene No. Rn.23969",+
same,"Behavior of gene caused by administration of chemical substance, Gene No. 2546","[1]; gene group (C), Unigene No. Rn.24561",−
same,"Behavior of gene caused by administration of chemical substance, Gene No. 3776","[1]; gene group (C), Unigene No. Rn.43232",−
same,"Behavior of gene caused by administration of chemical substance, Gene No. 3929","[1]; gene group (C), Unigene No. Rn.4620",−
same,"Behavior of gene caused by administration of chemical substance, Gene No. 1119","[1]; gene group (C), Unigene No. Rn.9757",−
same,"Behavior of gene caused by administration of chemical substance, Gene No. 6742","[1]; gene group (C), Unigene No. Rn.9779",+
same,"Behavior of gene caused by administration of chemical substance, Gene No. 5634","[1]; gene group (C), Unigene No. Rn.9862",+
same,"Behavior of gene caused by administration of chemical substance, Gene No. 5726","[1]; gene group (D), Unigene No. Rn.9939",−
same,Liver carcinogenicity,liver,Cr+
same,Carcinogenicity,rodent,C+
same,Mutagenicity by Ames test,[2],M−
